System: tobacco budworm (Heliothis virescens [Fabricius])
Assay: diet test: insect growth inhibition and mortality, tobacco budworm larvae, 5-day exposure
Format: in vivo
Conditions: second instar larvae
Description: The 5-deazapteridine of the present invention were incorporated into an artificial diet for evaluation of insecticidal activity against the tobacco budworm (Heliothis virescens [Fabricius]).
Stock solutions of test chemical in dimethyl sulfoxide were prepared for each rate of application. The rates of application, expressed as the negative log of the molar concentration, and the corresponding concentrations of the stock solution prepared for each rate are shown below:
One hundred microliters of each of the stock solutions was manually stirred into 50 mL of a molten (65°-70° C.) wheat germ-based artificial diet. The 50 mL of molten diet containing the test chemical was poured evenly into twenty wells in the outer four rows of a twenty-five well, five row plastic tray. Each well in the tray was about 1 cm in depth, with an opening of 3 cm by 4 cm at the lip. Molten diet containing only dimethyl sulfoxide at the levels used in the test chemical-treated diet was poured into the five wells in the third row of the tray. Each tray therefore contained one test chemical at a single rate of application, together with an untreated control.
Single second instar tobacco budworm larvae were placed in each well. The larvae were selected at a stage of growth at which they uniformly weigh about 5 mg each. Upon completion of infestation, a sheet of clear plastic was heat-sealed over the top of the tray using a common household flat iron. The trays were held at 25° C. at 60% relative humidity for five days in a growth chamber. Lighting was set at 14 hours of light and 10 hours of darkness.
After the 5-day exposure period, mortality counts were taken, and the surviving insects were weighed. From the weights of the surviving insects that fed on the treated diet as compared to those insects that fed on the untreated diet, the percent growth inhibition caused by each test chemical was determined. […] Where possible, the negative log of the concentration of the test chemical that provided 50% mortality (pLC50) was also determined.
The compounds of the present invention were tested in the diet test as insect growth inhibitors against the larvae of tobacco budworm (above).

COc1ccc(OC)c(Cc2cnc3nc(N)nc(N)c3c2C)c1 [Compound 90, 2,4-diamino-5-methyl-6-(2,5-dimethoxyphenylmethyl)-5-deazapteridine]
IC50 (Heliothis virescens, 120 h, artificial diet, linear regression, read-out: pI50: negative log of the concentration that provides 50% growth inhibition (converted)): 1000 nM
Percent Growth Inhibition (rate of application 4 (negative log of molar concentration in diet)): 95%
Percent Growth Inhibition (rate of application 5 (negative log of molar concentration in diet)): 87%
Percent Growth Inhibition (rate of application 6 (negative log of molar concentration in diet)): 41%
Percent Growth Inhibition (rate of application 7 (negative log of molar concentration in diet)): 26%
